Results on 2 compounds are retold here after US9695438B2, “Wheat plants having increased resistance to imidazolinone herbicides” (University of Saskatchewan, priority 2001, dated 2017).

Test [1] has as its system wheat plants (Triticum aestivum L. cv CDC Teal and mutant lines). The experiment in a line: Whole-plant reaction to imazamox spray (resistant / intermediate / susceptible rating). The class given is in vivo. The text has this: Approximately 40,000 seeds of Triticum aestivum L. cv CDC Teal (Hughes and Hucl, 1993 Can. J. Plant Sci. 73:193-197) were mutagenized using modified procedures described by Washington and Sears (1970). Seeds were pre-soaked in distilled water for four hours, followed by treatment with 0.3% EMS for six hours. Seeds were rinsed continually with tap water for seven hours and allowed to dry for approximately four hours before being planted in the field. The M1 plants were selfed and the seed was harvested in bulk. Approximately 2×10^6 M2 plants were grown in the field the following year and were sprayed at the two leaf stage with imazamox at a rate of 40 g ai ha^−1 in a spray volume of 100 L ha^−1. Merge 0.05% (v/v) adjuvant was added to the spray solution. Six lines resistant to imazamox were selected and designated as lines 1A, 9A, 10A, 11A, 15A, and 16A. The M3 and M4 generations were grown in a walk-in growth chamber and plants resistant to imazamox were selected using rates of 20 g ai ha^−1. Resistant plants were selected in the M5 generation after application of 40 g ai ha^−1 in the field. M5 seed was homozygous for the trait, as progeny testing detected no segregation for resistance to imazamox.
To determine the genetic control of resistance to imazamox in the six wheat lines, reciprocal crosses between the six homozygous resistant M6 lines and CDC Teal (susceptible to imazamox) were made. Randomly selected F1 plants from each of the crosses were backcrossed to CDC Teal to form backcross (BC)F1 populations. To investigate allelism, all possible inter-crosses between the six mutants and SWP965001 (Grandin/3*Fidel—FS-4) were made. SWP965001 is a spring wheat line that is homozygous for the FS-4 allele. Parental genotypes were grown in a walk-in growth chamber with a 16 hour photoperiod and a 24° C. day and 16° C. night temperature regime. Spikes that were ¾ emerged from the boot were emasculated and then pollinated 2-3 days after the emasculation date. Randomly selected F2 plants from all segregating crosses were selfed to produce F2:3 families. Parental, F1, BCF1, F2 plants and F2:3 families were tested for reaction to imazamox. All experiments were conducted in a walk-in growth chamber with a 16 hour photoperiod and a 23° C. day and 16° C. night temperature regime. A completely random design was used for all experiments. In experiments involving F2:3 families, effort was taken to randomize both within and among families. The F1 and F2 populations were screened in the same experiment along with parental genotypes and CDC Teal as controls. Both the BCF1 and F2:3 populations were screened in two separate experiments along with appropriate parental genotypes as controls.
Herbicide treatments were applied to plants growing in 8×16 cell flats at the two leaf stage using a traveling cable sprayer calibrated to spray 100 L ha^−1. Imazamox was applied to plants at a rate of 20 g ai ha^−1 using an 8001 EVS nozzle at a pressure of 275 kPa. Merge surfactant (0.05% v/v) was added to the herbicide solution prior to application. Fifteen days after herbicide application, plants were rated based on parental reactions and were considered as resistant, intermediate, or susceptible. […] For Mendelian analysis of the segregating populations, plants were scored into resistant and susceptible categories and tested for goodness of fit to various 1 gene, 2 gene and 3 gene models using chi-square analysis. […]

Test [2] has as its system wheat genotypes (BW755, Teal15A, 15A/11A). Briefly: Injury of wheat genotypes treated with 10× or 30× rate of imazamox. The format is in vivo, Triticum aestivum. From the text:
FIG. 7 is a table comparing injury sustained by three wheat genotypes when treated with either a 10× or 30× rate of imazamox. The 1× rate is 20 g/ha. BW755 contains the FS4 mutant gene. 15A/11A is a bulk of selfed progeny from the cross of Teal11A and Teal15A. The population was not yet homozygous at all three non-allelic loci.
The presence of two IMI nucleic acids in Teal 15A provides increased tolerance to imidazolinone herbicides compared to a line such as BW755 carrying only one IMI nucleic acid. This increased tolerance is reflected both in less injury at higher herbicide rates, but in having more uninhibited AHAS enzyme activity.
Combining three non-allelic genes each conferring tolerance to imidazolinone herbicides results in greater tolerance than with only two non-allelic genes (FIG. 7).

Test [3] deals with Nicotiana tabacum plants. Particulars: plants homozygous for both mutations versus plants homozygous for each single mutation; cited from earlier work.

Regarding `COCc1cnc(C2=NC(C)(C(C)C)C(=O)N2)c(C(=O)O)c1` (stereo not shown) [imazamox], the reaction to imazamox result in test [1] (CDC Teal (wild type parent)) was “susceptible”; in test [1] (F1 plants of resistant lines crossed with CDC Teal, except 15A×Teal, 20 g ai ha^−1) it was “intermediate reaction”; in test [1] (fourteen F1 plants from 15A×Teal cross, 20 g ai ha^−1), “resistant”; in test [1] (selected lines 1A, 9A, 10A, 11A, 15A, 16A, M2 plants in field, two leaf stage, 40 g ai ha^−1), “resistant”. The “survival after application of imazamox” value in test [1] (F1 plants of reciprocal crosses between resistant lines and CDC Teal, 20 g ai ha^−1) is “survived”. In addition, the plant injury result in test [2] (10× rate (200 g/ha), one gene plants (BW755, FS4)) is “all treated one gene plants were injured”; in test [2] (10× rate (200 g/ha), two gene plants (Teal 15A)), “no two gene plants were injured”; in test [2] (30× rate (600 g/ha), homozygous population of Teal15A), “all plants of the homozygous population of Teal15A sustained injury”; in test [2] (30× rate (600 g/ha), still-segregating selfed population of Teal15A crossed with Teal11A) it was “over half of plants sustained no injury”.

Take `COc1nc(C)nc(NC(=O)NS(=O)(=O)c2ccccc2Cl)n1` [chlorsulfuron]: the “resistance to foliar applications relative to single mutation plants” value in test [3] is on record as “five-fold more resistant”.
